One series deals with MCF-7. Briefly: MTT cytotoxicity assay, MCF-7. It counts as cell-based, human. How it is done: (§1) Compounds 1–5 were tested for their cytotoxic activities against different normal and tumor human cell lines, the MTT assay was used to assess cytotoxicity as described previously. Briefly, different tumor cells and normal cells were seeded onto 96-well plates at the appropriate density and allowed to attach overnight. Drugs at various concentrations were added to the culture medium and cells were cultured for another 68 h at 37 °C. MTT (5 mg/mL, 20 μL/well) was then added to the wells for additional 4 h, and the medium was discarded before 150 μL of DMSO was added to dissolve the MTT-formazan crystals. Absorbance was measured at 540 nm, with background subtraction at 670 nm using Model 550 Microplate Reader (Bio-Rad, Hercules, CA, USA). The Bliss method was used to calculate the half maximal (50%) inhibitory concentration (IC50) values. Data represent the mean ± SD of at least three independent experiments.

For series [1], the system named is Eimeria tenella infections. The arrangement: method as in PMID 7451360. As to conditions: animal experiments; cited from earlier work.
The next series has as its system NCM-460. The series can be described thus: MTT cytotoxicity assay, NCM-460 (normal cells). The note with it: 72 h. It is filed as cell-based. How it is done: as §1
Another series deals with BT-549. Briefly: MTT cytotoxicity assay, BT-549. As to conditions: BT-549, 72 h. It counts as cell-based, human. How it is done:
as §1

In another series the test system is A549. The series can be described thus: MTT cytotoxicity assay, A549. It counts as cell-based, human. The note with it: A549, 72 h. The protocol:
as §1

A further series relates to RBE. The series can be described thus: MTT cytotoxicity assay, RBE. It is filed as cell-based, human. The note with it: 72 h. How it is done:
as §1

The subject of another series is fungi. The arrangement: method as in PMID 19798499. As to conditions: cited from earlier work.
The test system of another series is Huvec. The series can be described thus: MTT cytotoxicity assay, Huvec (normal cells). It is filed as cell-based. As to conditions: 72 h, Huvec normal human cell line. The protocol: as §1
Another series has as its system Eimeria tenella. Briefly: In vitro anticoccidial activity (qPCR). It counts as cell-based. As to conditions: 48 h. How it is done: The number of Eimeria tenella spores and the cells were seeded in a 24-well plate at a ratio of 1:1 and incubated for 6 h, and the medium was discarded and washed with PBS three times. Then, 500 μL of medium was added to each well, followed by the addition of the medium containing the compounds, the blank control group (no spores and no compounds) and positive control group (with spores but no compound) were set, and 10 μM of sulfaclozinium chloride sodium served as a control drug, and three replicates were set up. The culture remained in an incubator containing 5% CO2 at 38 °C for 48 h. After 48 h, the medium was discarded and washed with PBS three times, and the total RNA of each well was extracted and reverse-transcribed into cDNA. qPCR was used to detect the effects of the compounds on the growth and development of E. tenella.

Series [2] concerns MCF-7, BT-549, RBE and A549; NCM-46 and Huvec. Briefly: MTT cytotoxicity, whole panel of cell lines. It is filed as cell-based. The note with it: four human cancer and two normal human cell lines. The protocol: as §1
[3] abbreviates: Homo sapiens, MCF7, MCF-7, 72 h.
Setting [4] is: NCM460, NCM-460 normal human cell line.

As to `COc1cc(C)cc(C(=O)O)c1C1=CC(=O)c2c(O)cccc2C1=O` [Compound 3, WS-5995B], the IC50 was 19.6 µM in the series on MCF-7 (setting [3]); 18.5 µM in the series with NCM-460 (setting [4]); 5.97 µM with BT-549 (Homo sapiens); greater than 50 µM in the series on A549 (Homo sapiens); 16.8 µM with RBE (Homo sapiens); 7.67 µM in the series on Huvec (Homo sapiens, HUVEC). The “protective activity against Eimeria tenella infections” value in series [1] is given as “excellent protective activity”. In the series with fungi, the antifungal activity result is reported as “antifungal activity”.
Consider `CCOC(=O)c1cc(C)cc(OC)c1C1=C(O)C(=O)c2c(O)cccc2C1=O` [Compound 1, WS-5995 E], for which the IC50 with MCF-7 (setting [3]) was greater than 50 µM; with NCM-460 (setting [4]), greater than 50 µM; with BT-549 (Homo sapiens), greater than 50 µM; in the series on A549 (Homo sapiens), greater than 50 µM; in the series with RBE (Homo sapiens), greater than 50 µM; with Huvec (Homo sapiens, HUVEC), greater than 50 µM. In addition, the “in vitro anti-E. tenella bioactivity” value with Eimeria tenella is reported as “only exhibited activity at high concentrations”. The “cytotoxic effects against the tested cell lines” value (shortened to “cytotoxic effects”) in series [2] is “did not exhibit cytotoxic effects”.
For the compound `COc1cccc2c1C(=O)c1c(O)c3c(c(O)c1C2=O)C[C@@](O)(C(=O)CO)C[C@@H]3O[C@H]1C[C@H](N)[C@H](O)[C@H](C)O1` [Adriamycin, reference compound], the IC50 in the series on MCF-7 (setting [3]) is 2.96 µM; in the series on NCM-460 (setting [4]), 3.24 µM; in the series with BT-549 (Homo sapiens), 6.42 µM; with A549 (Homo sapiens) it was 4.62 µM; in the series with RBE (Homo sapiens) it was 3.62 µM; with Huvec (Homo sapiens, HUVEC), 3.87 µM.
`COC(=O)c1cc(C)cc(OC)c1C1=C(O)C(=O)c2c(O)cccc2C1=O` [Compound 5, WS-5995D]: the IC50 in the series on MCF-7 (setting [3]) is greater than 50 µM; with NCM-460 (setting [4]), greater than 50 µM; in the series with BT-549 (Homo sapiens) it was greater than 50 µM; in the series on A549 (Homo sapiens), greater than 50 µM; with RBE (Homo sapiens), greater than 50 µM; in the series with Huvec (Homo sapiens, HUVEC) it was greater than 50 µM. Moreover, the “in vitro anti-E. tenella bioactivity” value in the series with Eimeria tenella was “only exhibited activity at high concentrations”. The “cytotoxic effects” value in [2] was “did not exhibit cytotoxic effects”.
As for `COc1cc(C)cc2c(=O)oc3c(c12)C(=O)c1cccc(O)c1C3=O` [Compound 2, WS-5995A], the IC50 was greater than 50 µM with MCF-7 (setting [3]); 40.8 µM with NCM-460 (setting [4]); 2.21 µM in the series on Eimeria tenella (Eimeria tenella, read-out: anti-E. tenella activity IC50); greater than 50 µM in the series on BT-549 (Homo sapiens); greater than 50 µM with A549 (Homo sapiens); 21.4 µM in the series with RBE (Homo sapiens). Further, the IC50 in the series on Huvec (Homo sapiens, HUVEC) turned out to be 31.2 µM. The “protective activity against Eimeria tenella infections” value in [1] is “excellent protective activity”. Further, the “in vitro anti-E. tenella bioactivity” value in the series on Eimeria tenella is reported as “significant anticoccidial activity”.
Regarding `N.N.[Cl][Pt][Cl]` [Cisplatin, reference compound], the IC50 in the series with MCF-7 (MCF-7, 72 h) is 4.49 µM; in the series with NCM-460 (NCM-460 normal human cell line), 19 µM; in the series with BT-549, 14.2 µM; in the series on A549, 9.34 µM; with RBE, 4.26 µM; with Huvec, 5.26 µM.
In the case of `COc1cc(C)cc(C(=O)O)c1C1=C(O)C(=O)c2c(O)cccc2C1=O` [Compound 4, WS-5995C], the IC50 with MCF-7 (setting [3]) is greater than 50 µM; in the series with NCM-460 (setting [4]) it was greater than 50 µM; with BT-549 (Homo sapiens), greater than 50 µM; in the series with A549 (Homo sapiens), greater than 50 µM; in the series with RBE (Homo sapiens) it was greater than 50 µM; in the series on Huvec (Homo sapiens, HUVEC), greater than 50 µM. The “in vitro anti-E. tenella bioactivity” value in the series on Eimeria tenella is reported as “not active”. In addition, the “cytotoxic effects” value in series [2] is on record as “did not exhibit cytotoxic effects”.
